Source: ChEMBL document CHEMBL3763031, “Design, synthesis and biological evaluation of monobactams as antibacterial agents against gram-negative bacteria” (2016)
Converted amounts (≈) assume the structure as drawn.

Legend:
[1] = test system: Klebsiella pneumoniae; test: Antibacterial activity against ESBL positive Klebsiella pneumoniae 700603 after 18 hrs by agar dilution assay; assay type: functional; conditions: Klebsiella pneumoniae, 700603, 18 h
[2] = test system: Proteus vulgaris; test: Antibacterial activity against beta-lactamase producing Proteus vulgaris 29905 after 18 hrs by agar dilution assay; assay type: functional; conditions: Proteus vulgaris, 29905, 18 h
[3] = test system: Salmonella typhi; test: Antibacterial activity against beta-lactamase producing Salmonella typhi H901 after 18 hrs by agar dilution assay; assay type: functional, Salmonella enterica subsp. enterica serovar Typhi; conditions: Salmonella enterica, H901, 18 h
[4] = test system: Klebsiella pneumoniae; test: Antibacterial activity against ESBL positive Klebsiella pneumoniae 09-25 after 18 hrs by agar dilution assay; assay type: functional; conditions: 09-25, 18 h
[5] = test system: Klebsiella pneumoniae; test: Antibacterial activity against ESBL negative Klebsiella pneumoniae 7 after 18 hrs by agar dilution assay; assay type: functional; conditions: Klebsiella pneumoniae, 7, 18 h
[6] = test system: Pseudomonas aeruginosa; test: Antibacterial activity against BL positive Pseudomonas aeruginosa 27853 after 18 hrs by agar dilution assay; assay type: functional; conditions: Pseudomonas aeruginosa, 27853, 18 h
[7] = test system: Citrobacter freundii; test: Antibacterial activity against beta-lactamase producing Citrobacter freundii 43864 after 18 hrs by agar dilution assay; assay type: functional; conditions: Citrobacter freundii, 43864, 18 h
[8] = test system: Enterobacter cloacae; test: Antibacterial activity against beta-lactamase producing Enterobacter cloacae 45301 after 18 hrs by agar dilution assay; assay type: functional; conditions: Enterobacter cloacae, 45301, 18 h
[9] = test system: Escherichia coli; test: Antibacterial activity against ESBL negative Escherichia coli 1515 after 18 hrs by agar dilution assay; assay type: functional; conditions: Escherichia coli, 1515, 18 h
[10] = test system: Klebsiella pneumoniae; test: Antibacterial activity against ESBL negative Klebsiella pneumoniae 09-8 after 18 hrs by agar dilution assay; assay type: functional; conditions: 09-8, 18 h
[11] = test system: Escherichia coli; test: Antibacterial activity against ESBL negative Escherichia coli 25922 after 18 hrs by agar dilution assay; assay type: functional; conditions: Escherichia coli, 25922, 18 h
[12] = test system: Serratia marcescens; test: Antibacterial activity against beta-lactamase producing Serratia marcescens 41002 after 18 hrs by agar dilution assay; assay type: functional; conditions: Serratia marcescens, 41002, 18 h
[13] = test system: Pseudomonas aeruginosa; test: Antibacterial activity against BL positive Pseudomonas aeruginosa PAO1 after 18 hrs by agar dilution assay; assay type: functional; conditions: PAO1, 18 h
[14] = test system: Klebsiella aerogenes; test: Antibacterial activity against beta-lactamase producing Enterobacter aerogenes 45102 after 18 hrs by agar dilution assay; assay type: functional; conditions: Klebsiella aerogenes, 45102, 18 h
[15] = test system: Escherichia coli; test: Antibacterial activity against ESBL negative Escherichia coli 09-20 after 18 hrs by agar dilution assay; assay type: functional; conditions: 09-20, 18 h
[16] = test system: Pseudomonas aeruginosa; test: Antibacterial activity against BL positive Pseudomonas aeruginosa 09-14 after 18 hrs by agar dilution assay; assay type: functional; conditions: 09-14, 18 h
[17] = test system: Proteus mirabilis; test: Antibacterial activity against beta-lactamase producing Proteus mirabilis 09-1 after 18 hrs by agar dilution assay; assay type: functional; conditions: 09-1, 18 h
[18] = test system: Klebsiella pneumoniae; test: Antibacterial activity against NDM-1 positive Klebsiella pneumoniae BAA-2146 after 18 hrs by agar dilution assay; assay type: functional; conditions: BAA-2146, 18 h
[19] = test system: Morganella morganii; test: Antibacterial activity against beta-lactamase producing Morganella morganii 25830 after 18 hrs by agar dilution assay; assay type: functional; conditions: Morganella morganii, 25830, 18 h
[20] = test system: Escherichia coli; test: Antibacterial activity against ESBL positive Escherichia coli 09-1 after 18 hrs by agar dilution assay; assay type: functional; conditions: 09-1, 18 h
[21] = test system: Providencia rettgeri; test: Antibacterial activity against Providencia rettgeri 31052 after 18 hrs by agar dilution assay; assay type: functional; conditions: Providencia rettgeri, 31052, 18 h
[22] = test system: Escherichia coli; test: Antibacterial activity against acrAB and acrEF knock-out Escherichia coli BL21 by microbroth dilution assay; assay type: functional
[23] = test system: Escherichia coli; test: Selectivity ratio of MIC for Escherichia coli BL21 to MIC for acrAB and acrEF knock-out Escherichia coli BL21; assay type: functional
[24] = test system: Escherichia coli; test: Antibacterial activity against Escherichia coli BL21 by microbroth dilution assay; assay type: functional

| Compound | MIC [1] | MIC [2] | MIC [3] | MIC [4] | MIC [5] | MIC [6] | MIC [7] | MIC [9] | MIC [10] | MIC [11] | MIC [12] | MIC [13] | MIC [14] | MIC [15] | MIC [16] | MIC [17] | MIC [18] | MIC [19] | MIC [20] | MIC [21] | further results |
| --- | --- | --- | --- | --- | --- | --- | --- | --- | --- | --- | --- | --- | --- | --- | --- | --- | --- | --- | --- | --- | --- |
| CCN(CC)CC.C[C@H]1[C@H](NC(=O)/C(=N\OCc2ccc(C(=O)N/N=C/c3ccc4ccccc4c3O)cc2)c2csc(N)n2)C(=O)N1S(=O)(=O)O | > 64 µg/mL | 1 µg/mL | 8 µg/mL | > 64 µg/mL | 2 µg/mL | 16 µg/mL | 8 µg/mL | 0.25 µg/mL | 32 µg/mL | 4 µg/mL | 8 µg/mL | 16 µg/mL | 8 µg/mL | 64 µg/mL | 16 µg/mL | 1 µg/mL | > 64 µg/mL | 0.06 µg/mL | 64 µg/mL | ≤ 0.03 µg/mL | MIC [8]: 4 µg/mL |
| CC1(C)[C@H](NC(=O)/C(=N\OCc2ccc(C(=O)O)cc2)c2csc(N)n2)C(=O)N1S(=O)(=O)O | > 64 µg/mL | 0.06 µg/mL (≈ 0.121 µM) | 32 µg/mL (≈ 64.3 µM) | 8 µg/mL (≈ 16.1 µM) | 2 µg/mL (≈ 4.02 µM) | > 64 µg/mL | 2 µg/mL (≈ 4.02 µM) | 8 µg/mL (≈ 16.1 µM) | 2 µg/mL (≈ 4.02 µM) | 4 µg/mL (≈ 8.04 µM) | 4 µg/mL (≈ 8.04 µM) | > 64 µg/mL | 8 µg/mL (≈ 16.1 µM) | 2 µg/mL (≈ 4.02 µM) | > 64 µg/mL | 8 µg/mL (≈ 16.1 µM) | 32 µg/mL (≈ 64.3 µM) | > 64 µg/mL | 4 µg/mL (≈ 8.04 µM) | ≤ 0.03 µg/mL | MIC [8]: 2 µg/mL (≈ 4.02 µM) |
| CCN(CC)CC.C[C@H]1[C@H](NC(=O)/C(=N\OCc2ccc(C(=O)N/N=C/c3cccs3)cc2)c2csc(N)n2)C(=O)N1S(=O)(=O)O (relative stereo) | 64 µg/mL | 0.06 µg/mL | 1 µg/mL | > 64 µg/mL | 2 µg/mL | 64 µg/mL | 2 µg/mL | 4 µg/mL | 8 µg/mL | 4 µg/mL | 2 µg/mL | 64 µg/mL | 2 µg/mL | 64 µg/mL | 32 µg/mL | 4 µg/mL | > 64 µg/mL | 1 µg/mL | 64 µg/mL | ≤ 0.03 µg/mL | MIC [22]: ≤ 0.06 µg/mL; MIC [8]: 1 µg/mL; Selectivity ratio [23]: >16; MIC [24]: 2 µg/mL |
| C[C@H]1[C@H](NC(=O)/C(=N\OC(C)(C)C(=O)O)c2csc(N)n2)C(=O)N1S(=O)(=O)O [AZTREONAM] | 32 µg/mL (≈ 73.5 µM) | ≤ 0.03 µg/mL | ≤ 0.03 µg/mL | 32 µg/mL (≈ 73.5 µM) | ≤ 0.03 µg/mL | 2 µg/mL (≈ 4.59 µM) | 0.125 µg/mL (≈ 0.287 µM) | 0.125 µg/mL (≈ 0.287 µM) | 16 µg/mL (≈ 36.7 µM) | 0.125 µg/mL (≈ 0.287 µM) | 0.125 µg/mL (≈ 0.287 µM) | 0.5 µg/mL (≈ 1.15 µM) | ≤ 0.03 µg/mL | > 256 µg/mL | 4 µg/mL (≈ 9.19 µM) | ≤ 0.03 µg/mL | 256 µg/mL (≈ 588 µM) | 0.125 µg/mL (≈ 0.287 µM) | 8 µg/mL (≈ 18.4 µM) | ≤ 0.03 µg/mL | – |
| C[C@H]1[C@H](NC(=O)/C(=N\OCc2cn(C)nn2)c2csc(N)n2)C(=O)N1S(=O)(=O)O (relative stereo) | > 128 µg/mL | 0.5 µg/mL (≈ 1.12 µM) | > 128 µg/mL | > 128 µg/mL | 1 µg/mL (≈ 2.25 µM) | > 128 µg/mL | 4 µg/mL (≈ 9 µM) | 4 µg/mL (≈ 9 µM) | > 128 µg/mL | 4 µg/mL (≈ 9 µM) | 2 µg/mL (≈ 4.5 µM) | > 128 µg/mL | 2 µg/mL (≈ 4.5 µM) | > 128 µg/mL | > 128 µg/mL | 1 µg/mL (≈ 2.25 µM) | > 128 µg/mL | 0.5 µg/mL (≈ 1.12 µM) | 4 µg/mL (≈ 9 µM) | 0.125 µg/mL (≈ 0.281 µM) | MIC [8]: 1 µg/mL (≈ 2.25 µM) |
| CCN(CC)CC.Cc1ccc(O)c(/C=N/NC(=O)c2ccc(CO/N=C(\C(=O)N[C@@H]3C(=O)N(S(=O)(=O)O)[C@H]3C)c3csc(N)n3)cc2)c1 (relative stereo) | 64 µg/mL | 1 µg/mL | 8 µg/mL | > 64 µg/mL | 2 µg/mL | 32 µg/mL | 8 µg/mL | 0.25 µg/mL | 32 µg/mL | 8 µg/mL | 8 µg/mL | 32 µg/mL | 8 µg/mL | 64 µg/mL | 32 µg/mL | 2 µg/mL | > 64 µg/mL | 0.12 µg/mL | 64 µg/mL | 0.06 µg/mL | MIC [8]: 4 µg/mL |
